Values after ≈ are worked out from the molar mass of the structure shown. Where a SMILES comes first, the peptide text is derived from it. Bridges are numbered along the chain shown (N, C = ends). [ ]: non-standard residue; d: D form. The star is where a group is joined. Ileψ(thiazoline)Cys = CC[C@H](C)[C@H](N)C1=N[C@H](C(=O)*)CS1; dOrn = NCCC[C@@H](N)C(=O)O Where only a bound is given, the exact number is not on record here.

What all share (assay type): functional
Experiment [1] has as its system Staphylococcus aureus. Nature of the experiment: Antibacterial activity against vancomycin-intermediate Staphylococcus aureus Mu50 after 48 hrs by Etest. Particulars: Mu50, 48 h.
Experiment [2] deals with Staphylococcus aureus. The experiment in a line: Antibacterial activity against vancomycin-susceptible Staphylococcus aureus Mu50omega expressing vraSn mutant gene after 48 hrs by Etest.
Experiment [3] relates to Staphylococcus aureus. The experiment in a line: Antibacterial activity against vancomycin-susceptible Staphylococcus aureus Mu50omega after 48 hrs by Etest.
Experiment [4] concerns Staphylococcus aureus. The experiment in a line: Antibacterial activity against vancomycin-susceptible Staphylococcus aureus Mu50omega expressing vraSm, graRm mutant gene after 48 hrs by Etest.
For experiment [5], the system named is Staphylococcus aureus. The experiment in a line: Antibacterial activity against vancomycin-susceptible Staphylococcus aureus Mu50omega after 24 hrs by Etest.
Experiment [6] deals with Staphylococcus aureus. Nature of the experiment: Antibacterial activity against vancomycin-susceptible Staphylococcus aureus Mu50omega expressing vraSm mutant gene after 48 hrs by Etest.
The subject of experiment [7] is Staphylococcus aureus. Nature of the experiment: Antibacterial activity against vancomycin-intermediate Staphylococcus aureus Mu50 after 24 hrs by Etest. Particulars: Mu50, 24 h.
Experiment [8] concerns Staphylococcus aureus. The experiment in a line: Antibacterial activity against vancomycin-susceptible Staphylococcus aureus Mu50omega expressing vraSm, graRm mutant gene after 24 hrs by Etest.
Experiment [9] relates to Staphylococcus aureus. Nature of the experiment: Antibacterial activity against vancomycin-susceptible Staphylococcus aureus Mu50omega expressing vraSn mutant gene after 24 hrs by Etest.
For experiment [10], the system named is Staphylococcus aureus. Nature of the experiment: Antibacterial activity against vancomycin-susceptible Staphylococcus aureus Mu50omega expressing vraSm mutant gene after 24 hrs by Etest.

Consider `CCCCCCCCCC(=O)N[C@@H](Cc1c[nH]c2ccccc12)C(=O)N[C@H](CC(N)=O)C(=O)N[C@@H](CC(=O)O)C(=O)N[C@@H]1C(=O)NCC(=O)N[C@@H](CCCN)C(=O)N[C@@H](CC(=O)O)C(=O)N[C@H](C)C(=O)N[C@@H](CC(=O)O)C(=O)NCC(=O)N[C@H](CO)C(=O)N[C@@H]([C@H](C)CC(=O)O)C(=O)N[C@@H](CC(=O)c2ccccc2N)C(=O)O[C@@H]1C`, for which the MIC in experiment [1] came out at 2 µg/mL (≈ 1.23 µM); in experiment [2], 1.5 µg/mL (≈ 0.926 µM); in experiment [3] it was 1 µg/mL (≈ 0.617 µM); in experiment [4] it was 2 µg/mL (≈ 1.23 µM); in experiment [5], 1 µg/mL (≈ 0.617 µM); in [6] it was 1.5 µg/mL (≈ 0.926 µM). Further, the MIC in [7] amounted to 2 µg/mL (≈ 1.23 µM); in experiment [8] it was 2 µg/mL (≈ 1.23 µM); in experiment [9] it was 1.5 µg/mL (≈ 0.926 µM); in experiment [10] it was 1.5 µg/mL (≈ 0.926 µM).
`CC[C@H]1OC(=O)[C@H](C)[C@@H](O[C@H]2C[C@@](C)(OC)[C@@H](O)[C@H](C)O2)[C@H](C)[C@@H](O[C@@H]2O[C@H](C)C[C@H](N(C)C)[C@H]2O)[C@](C)(O)C[C@@H](C)CN(C)[C@H](C)[C@@H](O)[C@]1(C)O` [AZITHROMYCIN]: the minimal inhibitory concentration (MIC) in [1], in experiment [3], in [5] and in experiment [7] was above 256 µg/mL each time.
For `CC[C@H](C)[C@H](N)C1=N[C@H](C(=O)N[C@@H](CC(C)C)C(=O)N[C@H](CCC(=O)O)C(=O)N[C@H](C(=O)N[C@H]2CCCCNC(=O)[C@H](CC(N)=O)NC(=O)[C@@H](CC(=O)O)NC(=O)[C@H](Cc3cnc[nH]3)NC(=O)[C@@H](Cc3ccccc3)NC(=O)[C@H]([C@@H](C)CC)NC(=O)[C@@H](CCCN)NC2=O)[C@@H](C)CC)CS1` [BACITRACIN] ({Ileψ(thiazoline)Cys}-L[dE]IK[dOrn]I[dF]H[dD]N; lactam 4-C), the MIC was above 256 µg/mL in experiment [1]; 256 µg/mL (≈ 180 µM) in experiment [2]; 24 µg/mL (≈ 16.9 µM) in [3]; above 256 µg/mL in experiment [4]; 12 µg/mL (≈ 8.43 µM) in experiment [5]; above 256 µg/mL in experiment [6]. In addition, the MIC in [7] was above 256 µg/mL; in experiment [8] it was 256 µg/mL (≈ 180 µM); in experiment [9] it was 128 µg/mL (≈ 90 µM); in [10], 256 µg/mL (≈ 180 µM).
Consider `CO[C@@]1(NC(=O)Cc2cccs2)C(=O)N2C(C(=O)O)=C(COC(N)=O)CS[C@@H]21` [CEFOXITIN], for which the minimal inhibitory concentration (MIC) in experiment [1] is above 256 µg/mL; in experiment [2], above 256 µg/mL; in experiment [3], 32 µg/mL (≈ 74.9 µM); in [4], above 256 µg/mL; in experiment [5], 32 µg/mL (≈ 74.9 µM); in [6], above 256 µg/mL. The MIC in experiment [7], in experiment [8], in experiment [9] and in experiment [10] was above 256 µg/mL each time.
Turning to `CO/N=C(\C(=O)N[C@@H]1C(=O)N2C(C(=O)O)=CCS[C@H]12)c1csc(N)n1` [CEFTIZOXIME], the minimum inhibitory concentration (MIC) in [1] was above 256 µg/mL; in experiment [2], above 256 µg/mL; in experiment [3], 0.5 µg/mL (≈ 1.3 µM); in experiment [4], above 256 µg/mL; in experiment [5] it was 0.38 µg/mL (≈ 0.991 µM); in experiment [6] it was above 256 µg/mL. Besides, the MIC in experiment [7], in [8], in experiment [9] and in [10] was above 256 µg/mL in each case.
Consider `CO/N=C(\C(=O)N[C@@H]1C(=O)N2C(C(=O)O)=C(CSc3nc(=O)c(O)nn3C)CS[C@H]12)c1csc(N)n1` [CEFTRIAXONE], for which the MIC was above 256 µg/mL in experiment [1]; above 256 µg/mL in experiment [3]; 3 µg/mL (≈ 5.41 µM) in [5]; above 256 µg/mL in experiment [7]; above 256 µg/mL in experiment [8]; above 0.256 µg/mL in experiment [9]. The same molecule registered an MIC in experiment [10] above 256 µg/mL.
With `CC(=O)OCC1=C(C(=O)O)N2C(=O)[C@@H](NC(=O)Cc3cccs3)[C@H]2SC1` [CEPHALOTHIN], the MIC in experiment [1] is 128 µg/mL (≈ 323 µM); in experiment [2] it was above 256 µg/mL; in experiment [3] it was 0.38 µg/mL (≈ 0.959 µM); in experiment [4], above 256 µg/mL; in experiment [5], 0.25 µg/mL (≈ 0.631 µM); in experiment [6], above 256 µg/mL. Besides, the minimal inhibitory concentration (MIC) is 128 µg/mL (≈ 323 µM) in [7], above 256 µg/mL in experiment [8], above 256 µg/mL in experiment [9] and above 256 µg/mL in [10].
With `O=C(O)c1cn(C2CC2)c2cc(N3CCNCC3)c(F)cc2c1=O` [CIPROFLOXACIN], the minimum inhibitory concentration (MIC) in [1], in [3], in [5] and in [7] was above 32 µg/mL each time.
As to `CC[C@H]1OC(=O)[C@H](C)[C@@H](O[C@H]2C[C@@](C)(OC)[C@@H](O)[C@H](C)O2)[C@H](C)[C@@H](O[C@@H]2O[C@H](C)C[C@H](N(C)C)[C@H]2O)[C@](C)(OC)C[C@@H](C)C(=O)[C@H](C)[C@@H](O)[C@]1(C)O` [CLARITHROMYCIN], the MIC in experiment [1], in [3], in [5] and in [7] was above 256 µg/mL throughout.
Consider `CCC[C@@H]1C[C@@H](C(=O)N[C@@H]([C@H]2O[C@H](SC)[C@H](O)[C@@H](O)[C@H]2O)[C@H](C)Cl)N(C)C1` [CLINDAMYCIN], for which the MIC in experiment [1], in experiment [3], in experiment [5] and in experiment [7] was above 256 µg/mL in each case.

Usually MIC stands for the lowest concentration found to suppress growth. A lower MIC goes with a more susceptible organism.

The values are drawn from ChEMBL document CHEMBL1629665, “Contribution of vraSR and graSR point mutations to vancomycin resistance in vancomycin-intermediate Staphylococcus aureus” (2009).
